# Experimental data published in US5696276A, “Process for preparing 5,8-dihydroxynaphthoquinone derivatives, novel 5,8-dihydroxynaphthoquinone derivatives and their use as anticancer agent” (Kuhnil Pharmaceutical Co., Ltd., priority 1993, dated 1997).
# Where two headings read alike, the source gives them in different places.
# Columns and labels:
# [1] = system: L1210 cells; test: Cytotoxic activity against L1210 cells; assay type: cell-based; conditions: Mus musculus; L1210 cells, 48 hours, 37° C.; read-out: ED50, cytotoxic activity against L1210
# Summary of the method: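 Log-phase L1210 cells (5×10^4 cells/ml) in Fisher medium exposed 48 h at 37 °C in CO2 to three dilutions of sample dissolved in ethanol or DMSO. Cells counted by haemacytometer; growth relative to control; ED50 (μg/ml) from linear regression of growth % on log concentration.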
# [2] = system: HL-60 cells; test: Cytotoxic activity against HL-60 cells; assay type: cell-based; conditions: Homo sapiens; HL-60 cells, 48 hours, 37° C.; read-out: ED50, cytotoxic activity against HL-60
# Description: As in the test for the cytotoxic activity against L1210 cells, the test samples were dissoved in ethanol or dimethylsulfoxide in a certain concentration. 0.1 ml of the sample solution was mixed with 0.9 ml of a fresh medium to prepare the dilutions. To each two test tubes having a screw cap were added 100, 50, 25 μl, respectively, of the sample dilutions by means of a micropipet. To each test tube for the test group and the control group (2√n: n=number of the samples) was added 5 ml of the dilutions of HL-60 cells and K-562 cells which were cultured and activated before 24 hours from the beginning of experiment and then diluted in a concentration of 1×10^5 cells/mi. All test tubes were cultured for 48 hours in a CO2 incubator at 37° C. and then the number of cells was counted using a haemacytometer.
# The ED50 value is defined as a concentration (μg/ml) of the sample which inhibits the growth of cancer cells by 50% of the control group and determined according to a method described in NIC's mannual (NIC=National Cancer Institue, U.S.A.). The growth rate Y(%) of cells in the presence of the test sample in each concentration was calculated according to the followign equation: […]
# In the above equation, T means the average cell number per ml in the test group after incubation for 48 hours in the presence of the test samples in each concentration, C means the average cell number per ml in the control group after incubation for 48 hours, and Co means the average cell number per ml in the control group at the beginning of incubation. The Y(%) value at each concentration and log10 value of each concentration were obtained and the regression curve was constructed according to the following equation from those obtained values. In this case, when all the Y(%) value obtained at each concentration is greater than 55% or lower than 45%, the experiment was repeatedly conducted.
# To construct the regression curve Y=A+BX the values A and B were obtained using the following equation. [formula]
# In the above, the value N is the number of selected points which is greater than 2 and lower than, or identical with, the number of cencentration of the test sample, Xi is log(concentration) i, and Yi is the growth ratio at (concentration)i. The value of ED50 was obtained for those obtained slope and intercept.
# [3] = system: A549 cancer cells; test: Cytotoxic activity against A549 cancer cells (sulforhodamin B method); assay type: cell-based; conditions: Homo sapiens; A549 cells, SRB method, 48 hours; read-out: ED50, cytotoxic activity against A549
# Summary of the method: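 Cells seeded at 8×10^4 per well, attached 24 h, then exposed 48 h to six log-spaced concentrations in triplicate. TCA-fixed, SRB-stained, OD read at 520 nm; growth inhibition computed relative to time-zero and untreated counts, IC50 from regression.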
# [4] = system: S-180 sarcoma cells; test: Animal experiment using Sarcoma S-180 cells (survival of mouse); assay type: in vivo, male ICR mouse; conditions: for responders at 15 µmol/kg / response vs control in vivo at 15 µmol/kg: daily dose 15 μmole (mg/kg/day given per compound)
# Summary of the method: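 Male ICR mice (20 to 25 g) received intraperitoneal transplants of 0.1 ml S-180 cell suspension (10^7 cells/ml), prepared from ascites by washing in cold physiological saline. After 24 hours, groups of 8 to 9 mice received 7 to 8 ip injections of sample in dimethylsulfoxide diluted with saline. Controls got 2% dimethylsulfoxide-saline. Survival (T/C, %) was scored against control death.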
# [5] = system: L1210 cells; conditions: Kor. J. Pharm. Soc., 34, 262-266 (1990); cited from earlier work
# [6] = system: S-180 sarcoma; conditions: Kor. J. Pharm. Soc., 34, 262-266 (1990); cited from earlier work
# [7] = system: K-562 cells; test: Cytotoxic activity against K-562 cells; assay type: cell-based; conditions: Homo sapiens, K562, 48 h, read-out: ED50, cytotoxic activity against K562
# Summary of the method: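 HL-60 and K-562 cells (1×10^5 cells/ml) incubated 48 h at 37° C with sample dilutions from ethanol or DMSO stocks; cells counted by haemacytometer. ED50 (μg/ml) is the concentration giving 50% growth inhibition versus control, taken from linear regression of growth rate against log concentration.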
# [8] = system: S-180 ascitic cancer; conditions: mouse suffering from S-180 ascitic cancer; Chem. Pharm. Bull. 25, 2392-2395 (1977); cited from earlier work
# [9] = system: L1210 cancer; conditions: Chem. Pharm. Bull. 25, 2392-2395 (1977); cited from earlier work
# [10] = Mus musculus, S-180, ip, 1200 h, read-out: Number of mouse survived for 50 days
# [11] = ip, 1200 h, S-180 ICR mouse, intraperitoneal, 7 to 8 injections, read-out: Number of mouse survived for 50 days (converted)
# [12] = ip, S-180 ICR mouse, intraperitoneal, 7 to 8 injections, read-out: T/C
# [13] = ip, 1200 h, S-180 ICR mouse, intraperitoneal, daily dose 10 μmole (mg/kg/day given per compound), 7 to 8 injections, read-out: Number of mouse survived for 50 days (converted)
# [14] = ip, S-180 ICR mouse, intraperitoneal, daily dose 10 μmole (mg/kg/day given per compound), 7 to 8 injections, read-out: T/C
smiles,measurement,setting,value
"CC(=O)OC(CC=C(C)C)C1=CC(=O)c2c(O)ccc(O)c2C1=O (stereo not shown) [2-(1-acetyloxy-4-methyl-3-pentenyl)-5,8-dihydroxy-1,4-naphthoquinone]",IC50,[1],< 0.01 µg/mL
same,IC50,[2],0.06 µg/mL
same,IC50,[3],1 µg/mL
same,responders at 5 µmol/kg,[4]; [10],0%
same,response vs control in vivo at 5 µmol/kg,"[4]; ip, S-180 ICR mouse, intraperitoneal, daily dose 5 μmole (mg/kg/day given per compound), 7 to 8 injections, read-out: T/C",160%
same,ED50 value against L1210 cells,[5],0.01 µg/mL
same,LSI in mouse suffering from S-180 sarcoma,[6],85%
"C=CCCCCCCCCC(=O)OC(CC=C(C)C)C1=CC(=O)c2c(O)ccc(O)c2C1=O (stereo not shown) [2-(1-undecylenoyloxy-4-methyl-3-pentenyl)-5,8-dihydroxy-1,4-naphthoquinone]",IC50,[1],0.01 µg/mL
same,IC50,[2],0.3 µg/mL
same,IC50,[3],6.7 µg/mL
same,responders at 15 µmol/kg,[4]; [11],0%
same,response vs control in vivo at 15 µmol/kg,[4]; [12],110%
"CC=CC=CC(=O)OC(CC=C(C)C)C1=CC(=O)c2c(O)ccc(O)c2C1=O (stereo not shown) [2-[1-(2,4-hexadienoyloxy)-4-methyl-3-pentenyl]-5,8-dihydroxy-1,4-naphthoquinone]",IC50,[1],0.5 µg/mL
same,IC50,[2],0.6 µg/mL
same,IC50,[3],0.7 µg/mL
same,responders at 10 µmol/kg,[4]; [13],25%
same,response vs control in vivo at 10 µmol/kg,[4]; [14],185%
"CC(C)=CCC(OC(=O)C=C(C)C)C1=CC(=O)c2c(O)ccc(O)c2C1=O (stereo not shown) [2-[1-(3,3-dimethyl)acryloxy-4-methyl-3-pentenyl]-5,8-dihydroxy-1,4-naphthoquinone]",IC50,[1],< 0.01 µg/mL
same,IC50,[2],0.05 µg/mL
same,IC50,[3],1.1 µg/mL
same,responders at 10 µmol/kg,[4]; [10],25%
same,response vs control in vivo at 10 µmol/kg,"[4]; Mus musculus, S-180, ip, read-out: T/C",179%
"C=CCCC(=O)OC(CC=C(C)C)C1=CC(=O)c2c(O)ccc(O)c2C1=O (stereo not shown) [2-[1-(4-pentenoyl)oxy-4-methyl-3-pentenyl]-5,8-dihydroxy-1,4-naphthoquinone]",IC50,[1],0.02 µg/mL
same,IC50,[2],0.5 µg/mL
same,IC50,[3],1 µg/mL
same,responders at 10 µmol/kg,[4]; [13],14.3%
same,response vs control in vivo at 10 µmol/kg,[4]; [14],180%
"C=CCCCCC(=O)OC(CC=C(C)C)C1=CC(=O)c2c(O)ccc(O)c2C1=O (stereo not shown) [2-[1-(6-heptenoyl)oxy-4-methyl-3-pentenyl]-5,8-dihydroxy-1,4-naphthoquinone]",IC50,[1],0.2 µg/mL
same,IC50,[2],0.5 µg/mL
same,IC50,[3],4.2 µg/mL
same,responders at 10 µmol/kg,[4]; [13],12.5%
same,response vs control in vivo at 10 µmol/kg,[4]; [14],192%
"CCCCCC=CCC=CCCCCCCCC(=O)OC(CC=C(C)C)C1=CC(=O)c2c(O)ccc(O)c2C1=O (stereo not shown) [2-[1-(9,12-octadecadinoyloxy-4-methyl-3-pentenyl]-5,8-dihydroxy-1,4-naphthoquinone]",IC50,[1],5 µg/mL
same,IC50,[2],12.5 µg/mL
same,IC50,[3],> 20 µg/mL
same,responders at 15 µmol/kg,[4]; [11],0%
same,response vs control in vivo at 15 µmol/kg,[4]; [12],100%
"CC(C)=CCC(OC(=O)C=C(C)C=CC=C(C)C=CC1=C(C)CCCC1(C)C)C1=CC(=O)c2c(O)ccc(O)c2C1=O (stereo not drawn) [2-[1-(cis-retinoyl)oxy-4-methyl-3-pentenyl]-5,8-dihydroxy-1,4-naphthoquinone]",IC50,[1],7.1 µg/mL
same,IC50,[2],6.6 µg/mL
same,IC50,[3],> 20 µg/mL
same,responders at 15 µmol/kg,[4]; [11],0%
same,response vs control in vivo at 15 µmol/kg,[4]; [12],125%
"C=CCC/C=C/C(=O)OC(CC=C(C)C)C1=CC(=O)c2c(O)ccc(O)c2C1=O (stereo not drawn) [2-[1-(trans-2,6-heptadienoyloxy)-4-methyl-3-pentenyl]-5,8-dihydroxy-1,4-naphthoquinone]",IC50,[1],1.3 µg/mL
same,IC50,[2],0.9 µg/mL
same,IC50,[3],3.8 µg/mL
same,responders at 10 µmol/kg,[4]; [13],12.5%
same,response vs control in vivo at 10 µmol/kg,[4]; [14],180%
"CC/C=C/C(=O)OC(CC=C(C)C)C1=CC(=O)c2c(O)ccc(O)c2C1=O (stereo not drawn) [2-[1-(trans-2-pentenoyloxy)-4-methyl-3-pentenyl]-5,8-dihydroxy-1,4-naphthoquinone]",IC50,[1],0.4 µg/mL
same,IC50,[2],0.9 µg/mL
same,IC50,[3],1.1 µg/mL
same,responders at 15 µmol/kg,[4]; [11],14.3%
same,response vs control in vivo at 15 µmol/kg,[4]; [12],210%
"CCC/C=C/C(=O)OC(CC=C(C)C)C1=CC(=O)c2c(O)ccc(O)c2C1=O (stereo not drawn) [2-[1-trans-(2-hexenoyl)oxy-4-methyl-3-pentenyl]-5,8-dihydroxy-1,4-naphthoquinone]",IC50,[1],0.5 µg/mL
same,IC50,[2],1 µg/mL
same,IC50,[3],1.6 µg/mL
same,responders at 10 µmol/kg,[4]; [13],12.5%
same,response vs control in vivo at 10 µmol/kg,[4]; [14],160%
"CC/C=C/CC(=O)OC(CC=C(C)C)C1=CC(=O)c2c(O)ccc(O)c2C1=O (stereo not drawn) [2-[1-trans-(3-hexenoyl)oxy-4-methyl-3-pentenyl]-5,8-dihydroxy-1,4-naphthoquinone]",IC50,[1],0.3 µg/mL
same,IC50,[2],0.9 µg/mL
same,IC50,[3],3.3 µg/mL
same,responders at 10 µmol/kg,[4]; [13],25%
same,response vs control in vivo at 10 µmol/kg,[4]; [14],200%
"CC(C)=CCC(OC(=O)/C=C(C)/C=C/C=C(C)/C=C/C1=C(C)CCCC1(C)C)C1=CC(=O)c2c(O)ccc(O)c2C1=O (stereo not drawn) [2-[1-trans-retinoyloxy)-4-methyl-3-pentenyl]-5,8-dihydroxy-1,4-naphthoquinone]",IC50,[1],3.1 µg/mL
same,IC50,[2],4.3 µg/mL
same,IC50,[3],> 20 µg/mL
same,responders at 15 µmol/kg,[4]; [11],0%
same,response vs control in vivo at 15 µmol/kg,[4]; [12],107%
"O=c1[nH]cc(F)c(=O)[nH]1 [5-Fluorouracil, reference compound]",IC50,[1],0.02 µg/mL
same,IC50,[2],0.2 µg/mL
same,IC50,[7],1 µg/mL
same,IC50,[3],3.7 µg/mL
CC(C)=CC[C@@H](O)C1=CC(=O)c2c(O)ccc(O)c2C1=O [shikonin],increase in life span (LSI),[8],92%
same,effect in mouse suffering from L1210 cancer,[9],does not show a significant effect
